Data from patent US8053439B2, “Benzophenone derivatives useful for inhibiting formation of microtubule” (Chong Kun Dang Pharmaceutical Corp., priority 2006, dated 2011).
Like-named read-outs stand apart in the source and are kept apart here.

System: HL60 cells
Assay: Inhibition effect of HL60 cell line growth (MTT, 3 days)
Assay type: cell-based
Conditions: Homo sapiens, HL-60, 72 h, read-out: HL60 Growth Inhibition
Method: 1. Inhibition Effect of HL60 Cell Line Growth
A 10% FBS-contained RPMI1640 badge was used for culturing HL60 cells. The test substance was prepared by dissolving in DMSO to a concentration of 10 mg/ml, and continuously diluting with PBS to a final concentration of 100 μg/ml to 0.03 μg/ml. In a 96-well microplate, 180 μl of the badge containing 6.0×10^4 cells/ml of cells and 20 μl of continuously diluted test substance were added. The mixture was cultured at 37° C. with 5% CO2 atmosphere for 3 days. After completion of the cultivation, 50 μl of a solution of 1.25 mg/ml MTT (3-(4,5-dimethylthiazol-2-yl)-2,5-diphenyltetrazolium bromide) dissolved in PBS was added to all wells, and the resulting mixture was reacted at 37° C. for 3 hours. Thus formed formazan crystals were dissolved in 150 μl of DMSO, and an absorbance was measured at 570 nm.

[1] = HL60 cells, 3 days culture, MTT, absorbance 570 nm

| SMILES | IC50 [1] [nM] | IC50 [nM] |
| --- | --- | --- |
| COc1cc(C(=O)c2cc(-c3ccco3)ccc2NS(C)(=O)=O)cc(OC)c1OC [Compound 235, N-(4-(furan-2-yl)-2-(3,4,5-trimethoxybenzoyl)phenyl)methanesulfonamide] | 280 | – |
| COc1ccc(-c2ccco2)cc1C(=O)c1cc(CO)c(OC)c(OC)c1 [Compound 249, (5-(furan-2-yl)-2-methoxyphenyl)(3-(hydroxymethyl)-4,5-dimethoxyphenyl)methanone] | 120 | – |
| COc1cc(C(=O)c2cc(-c3nccs3)ccc2NC=O)cc(OC)c1OC [Compound 316, N-(4-(thiazol-2-yl)-2-(3,4,5-trimethoxybenzoyl)phenyl)formamide] | 140 | – |
| COc1cc(C(=O)c2cc(-c3nccs3)ccc2N)cc(OC)c1OC [Compound 278, (2-amino-5-(thiazol-2-yl)phenyl)(3,4,5-trimethoxyphenyl)methanone] | – | 30 |
| COc1cc(C(=O)c2ccc(-c3ncco3)cc2-n2cncn2)cc(OC)c1OC [Compound 602, (4-(oxazol-2-yl)-2-(1H-1,2,4-triazol-1-yl)phenyl)(3,4,5-trimethoxyphenyl)methanone] | 170 | – |
| COc1ccc(-c2cccnc2)cc1C(=O)c1cc(OC)c(OC)c(OC)c1 [Compound 200, (2-methoxy-5-(pyridin-3-yl)phenyl)(3,4,5-trimethoxyphenyl)methanone] | – | 130 |
| COC(=O)Nc1nc(-c2ccc(C(=O)c3cc(OC)c(OC)c(OC)c3)c(-n3cncn3)c2)cs1 [Compound 561, methyl 4-(3-(1H-1,2,4-triazol-1-yl)-4-(3,4,5-trimethoxybenzoyl)phenyl)thiazol-2-yl carbamate] | 320 | – |
| C=CCc1cc(C(=O)c2cc(-c3ccco3)ccc2OC)cc(OC)c1O [Compound 269, (3-allyl-4-hydroxy-5-methoxyphenyl)(5-(furan-2-yl)-2-methoxyphenyl)methanone] | 1690 | – |
| COc1ccc(-c2csc(C)n2)cc1C(=O)c1cc(OC)c(OC)c(OC)c1 [Compound 595, (2-methoxy-5-(methylthiazol-4-yl)phenyl)(3,4,5-trimethoxyphenyl)methanone] | 120 | – |
| COc1cc(C(=O)c2cc(-c3ccco3)ccc2NC(=O)CN)cc(OC)c1OC [Compound 237, 2-amino-N-(4-(furan-2-yl)-2-(3,4,5-trimethoxybenzoyl)phenyl)acetamide] | 270 | – |
| COc1ccc(-c2ccn[nH]2)cc1C(=O)c1cc(OC)c(OC)c(OC)c1 [Compound 598, (2-methoxy-5-(1H-pyrazol-5-yl)phenyl)(3,4,5-trimethoxyphenyl)methanone] | 390 | – |
| COc1cc(C(=O)c2cccc(-c3ccsc3)c2)cc(OC)c1OC [Compound 568, (3-(thiophen-3-yl)phenyl)(3,4,5-trimethoxyphenyl)methanone] | 360 | – |

The remaining molecules from weak to strong by IC50 [1], led by results:

| IC50 [1] [nM] | SMILES | IC50 [nM] |
| --- | --- | --- |
| 110 | COc1cc(C(=O)c2cc(-c3ccco3)ccc2-n2ccnn2)cc(OC)c1OC [Compound 379, (5-(furan-2-yl)-2-(1H-1,2,3,-triazol-1-yl)phenyl)(3,4,5-trimethoxyphenyl)methanone] | – |
| 100 | COc1cc(C(=O)c2cc(-c3ncco3)ccc2-n2cncn2)cc(OC)c1OC [Compound 359, (5-(oxazol-2-yl)-2-(H-1,2,4-triazol-1-yl)phenyl)(3,4,5-trimethoxyphenyl)methanone] | – |
| 100 | COc1cc(C(=O)c2cc(-c3nccs3)cnc2-n2cncn2)cc(OC)c1OC [Compound 410, (5-(thiazol-2-yl)-2-(1H-1,2,4-triazol-1-yl)pyridin-3-yl)(3,4,5-trimethoxyphenyl)methanone] | – |
| 80 | COc1cc(C(=O)c2cc(-c3ccsc3)ccc2N)cc(OC)c1OC [Compound 301, (2-amino-5-(thiophen-3-yl)phenyl)(3,4,5-trimethoxyphenyl)methanone] | – |
| 58 | COc1cc(C(=O)c2cc(-c3ccco3)ccc2N)cc(OC)c1OC [Compound 225, (2-amino-5-(furan-2-yl)phenyl)(3,4,5-trimethoxyphenyl)methanone] | – |
| 40 | COc1cc(C(=O)c2cccc(-c3nccs3)c2)cc(OC)c1OC [Compound 581] | – |
| 33 | COc1cc(C(=O)c2ccc(-c3ccsc3)cc2-n2cncn2)cc(OC)c1OC [Compound 462, (4-(thiophen-3-yl)-2-(1H-1,2,4,-triazol-1-yl)phenyl)(3,4,5-trimethoxyphenyl)methanone] | – |
| 7 | COc1cc(C(=O)c2cc(-c3ncco3)ccc2N)cc(OC)c1OC [Compound 289, (2-amino-5-(oxazol-2-yl)phenyl)(3,4,5-trimethoxyphenyl)methanone] | – |
